Laboratory results as given in US9487530B2, “Transient protection of normal cells during chemotherapy” (G1 Therapeutics, Inc., priority 2013, dated 2016).
Read-outs that look alike come from different tables or passages of the source.

Legend:
[1] = Mouse pharmacokinetics, oral gavage and intravenous; type: in vivo
HSPCs = assay: Bone marrow HSPC proliferation by EdU incorporation and flow cytometry; type: in vivo, mouse; conditions: for EdU incorporation into HSPCs compared to control: 150 mg/kg oral gavage, 12 and 24 hours, FIG. 6A
Method: Mice were then sacrificed at the indicated times (0, 12, 24, 36, or 48 hours following compound administration), and bone marrow was harvested (n=3 mice per time point), as previously described (Johnson et al. J. Clin. Invest. (2010) 120(7), 2528-2536). Four hours before the bone marrow was harvested, mice were treated with 100 μg of EdU by intraperitoneal injection (Invitrogen). Bone marrow mononuclear cells were harvested and immunophenotyped using previously described methods and percent EdU positive cells were then determined (Johnson et al. J. Clin. Invest. (2010) 120(7), 2528-2536). In brief, HSPCs were identified by expression of lineage markers (Lin−), ScaI (S+), and c-Kit (K+).
Four hours before animals were sacrificed and the bone marrow was harvested, mice were treated with 100 μg of EdU by intraperitoneal injection. Three mice per group were sacrificed at 12 hours and the remaining three animals per group were sacrificed at 24 hours. Results are shown in FIG. 6A as the ratio of EdU positive cells for treated animals at 12 or 24 hour time points compared to control.
Further experiments were completed with Compound T examining dose response and longer periods of compound treatment. […] […].
Both compounds were administered at 150 mg/kg by oral gavage. One hour prior to harvesting bone marrow, EdU was IP injected to label cycling cells. Bone marrow was harvested at 12, 24, 36, and 48 hours after compound treatment and the percentage of EdU positive HSPC cells was determined at each time point.

[2] = test system: Rb-positive cell line (WM2664 or tHS68); assay: EdU proliferation, RB-intact Cdk4/6-dependent cell line; type: cell-based; conditions: 24 hours treatment
Method: (§1) The effect of Cdk4/6 inhibition on proliferation was measured by EdU incorporation. An RB-intact, Cdk4/6-dependent cell line (WM2664 or tHS68) and a panel of RB-negative SCLC cell lines (H69, H82, H209, H345, NCI417, or SHP-77) were analyzed for growth inhibition by the various CDK4/6 inhibitors.

[3] = test system: RB-negative SCLC cell lines (H69, H82, H209, H345, NCI417, SHP-77); assay: EdU proliferation, RB-negative SCLC cell lines; type: cell-based, human; conditions: 24 hours treatment
Method: as §1

bone marrow progenitors = assay: Carboplatin-induced cytotoxicity in the bone marrow; type: in vivo, mouse; conditions: 150 mg/kg oral gavage plus 90 mg/kg carboplatin i.p.; 24 hours
Method: To assess the effect of transient CDK4/6 inhibition by Compound GG on carboplatin-induced cytotoxicity in the bone marrow, FVB/n mice (n=3 per group) were treated with vehicle control, 90 mg/kg carboplatin by intraperitoneal injection, or 150 mg/kg Compound GG by oral gavage plus 90 mg/kg carboplatin by intraperitoneal injection. 24 hours after treatment bone marrow was harvested and the percent of cycling bone marrow progenitors was measured by EdU incorporation as explained earlier. […] EdU incorporation in control animals was normalized to 100% and compared to EdU incorporation for bone marrow from carboplatin treated animals or carboplatin and Compound GG treated animals.

[4] = PD0332991 pharmacokinetics and HSPC arrest in humans; type: in vivo, human; conditions: single administration
Method: When calculated half-life was longer than the duration of the experiment, the half-life was expressed as >the longest incubation time. The calculated half-life is also listed in parentheses. […] The timely resumption of cellular proliferation is necessary for tissue repair, and therefore an overly long period of arrest is undesirable in healthy cells such as HSPCs. The characteristics of a CDK4/6 inhibitor that dictate its arresting duration are its pharmacokinetic (PK) and enzymatic half-lives. Once initiated, a G1-arrest in vivo will be maintained as long as circulating compound remains at an inhibitory level, and as long as the compound engages the enzyme. […] […]. […] […]. These observations may explain the severe granulocytopenia seen with PD0332991 in the clinic.

[5] = test system: Renal Proximal Tubule Epithelial Cells (Rb-positive); assay: Cellular wash-out experiment, renal proximal tubule epithelial cells; type: cell-based, human; conditions: 300 nM; compared to cells treated with compounds T, Q, GG, or U
Method: Alternatively, the same experiment was done using normal Renal Proximal Tubule Epithelial Cells (Rb-positive) obtained from American Type Culture Collection (ATCC, Manassas, Va.). Cells were grown in an incubator at 37° C. in a humidified atmosphere of 5% CO2 in Renal Epithelial Cell Basal Media (ATCC) supplemented with Renal Epithelial Cell Growth Kit (ATCC) in 37° C. humidified incubator.
Upon harvesting cells, samples were stained with propidium iodide staining solution and samples run on Dako Cyan Flow Cytometer. The fraction of cells in G0-G1 DNA cell cycle versus the fraction in S-phase DNA cell cycle was determined using FlowJo 7.2.2 analysis.

[6] = in humans; cited from earlier work
[7] = test system: HSPC (LKS+) and myeloid progenitor cells (LKS-); conditions: single 150 mg/kg oral gavage; FIG. 5; cited from earlier work
[8] = in mice; cited from earlier work
CDK4/CycD1 = biological target: T1, CDK4/CycD1 (Homo sapiens, UniProt P11802); assay: CDK4/cyclinD1 kinase assay (Nanosyn, Caliper microfluidic); type: biochemical
T1 construct: Nanosyn (ran the assay as a service)
Method: (§2) Selected compounds disclosed herein were tested in CDK4/cyclinD1, CDK6/CycD3 CDK2/CycA and CDK2/cyclinE kinase assays by Nanosyn (Santa Clara, Calif.) to determine their inhibitory effect on these CDKs. The assays were performed using microfluidic kinase detection technology (Caliper Assay Platform). The compounds were tested in 12-point dose-response format in singlicate at Km for ATP. Phosphoacceptor substrate peptide concentration used was 1 μM for all assays and Staurosporine was used as the reference compound for all assays. Specifics of each assay are as described below:
CDK4/CyclinD1: Enzyme concentration: 1 nM; ATP concentration: 200 μM; Incubation time: 10 hr.

CDK2/CycE = biological target: T2, CDK2/CycE (Homo sapiens, UniProt P24941); assay: CDK2/cyclinE kinase assay (Nanosyn, Caliper microfluidic); type: biochemical
T2 construct: Nanosyn (ran the assay as a service)
Method: as §2, with “assays.” for “assays. Specifics of each assay are as described below:”

T1 sequence (P11802 whole entry, species assumed): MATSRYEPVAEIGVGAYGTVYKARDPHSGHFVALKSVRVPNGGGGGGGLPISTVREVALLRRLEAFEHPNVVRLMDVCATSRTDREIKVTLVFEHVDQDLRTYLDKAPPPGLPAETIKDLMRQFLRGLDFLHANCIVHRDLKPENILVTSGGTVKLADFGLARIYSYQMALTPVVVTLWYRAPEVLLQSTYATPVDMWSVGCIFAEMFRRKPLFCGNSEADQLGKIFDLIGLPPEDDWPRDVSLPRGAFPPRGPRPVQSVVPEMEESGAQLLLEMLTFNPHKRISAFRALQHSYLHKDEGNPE
T1 sequence (P24385 whole entry partner, species assumed): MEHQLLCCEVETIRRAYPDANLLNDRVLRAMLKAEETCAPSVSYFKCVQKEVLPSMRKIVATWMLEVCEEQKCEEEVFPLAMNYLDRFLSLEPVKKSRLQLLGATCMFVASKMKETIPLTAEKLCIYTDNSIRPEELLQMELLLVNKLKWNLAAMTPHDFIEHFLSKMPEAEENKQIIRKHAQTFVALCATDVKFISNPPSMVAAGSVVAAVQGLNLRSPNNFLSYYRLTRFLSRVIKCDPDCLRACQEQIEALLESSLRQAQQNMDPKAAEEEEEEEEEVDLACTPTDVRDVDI

**Q.** With CC(C)N1CCN(c2ccc(Nc3ncc4cc5n(c4n3)C3(CCCCC3)CNC5=O)nc2)CC1 [GG, 2′-((5-(4-isopropylpiperazin-1-yl)pyridin-2-yl)amino)-7′,8′-dihydro-6′H-spiro[cyclohexane-1,9′-pyrazino[1′,2′:1,5]pyrrolo[2,3-d]pyrimidin]-6′-one] as the compound, how does the “F (oral bioavailability)” value [1] read?
**A.** Its value is 52%.

**Q.** What about the “EdU incorporation into HSPCs compared to control” value (HSPCs) of the same compound?
**A.** Its value is “reduction in EdU incorporation at 12 hours which was starting to return to normal at 24 hours”.

**Q.** What about the “proliferation (cells in S-phase by EdU)” value [2] of the same compound?
**A.** Its value is “inhibits”.

**Q.** What about the “growth (cells in S-phase by EdU)” value [3] of the same compound?
**A.** The value was “does not affect the growth”.

**Q.** And the “cycling bone marrow progenitors (EdU incorporation)” value (bone marrow progenitors)?
**A.** Its value is “significant protection of bone marrow progenitors”.

**Q.** Which results are given for CC(=O)c1c(C)c2cnc(Nc3ccc(N4CCNCC4)cn3)nc2n(C2CCCC2)c1=O [PD0332991, 6-acetyl-8-cyclopentyl-5-methyl-2-(5-piperazin-1-yl-pyridin-2-ylammino)-8H-pyrido-[2,3-d]-pyrimidin-7-one]?
**A.** duration of cell cycle arrest of HSPC [4]: approximately one week; duration of sustained reduction in HSPCs (HSPCs; single 150 mg/kg oral dose, FIG. 7): greater than 36 hours; time to return to baseline levels of cell division after wash out [5]: significantly longer; proliferation (cells in S-phase by EdU) [2]: inhibits; growth (cells in S-phase by EdU) [3]: does not affect the growth; PK half-life [6]: 27 h; duration of sustained reduction in HSPC and myeloid progenitor cell EdU incorporation [7]: greater than 36 hours; time until HSPC and myeloid progenitor cells return to baseline cell division [7]: 48 h; PK half-life [8]: 6 h

**Q.** For O=C1NCC2(CCCCC2)n2c1cc1cnc(Nc3ccc(N4CCNCC4)cn3)nc12 [Q, 2′-((5-(piperazin-1-yl)pyridin-2-yl)amino)-7′,8′-dihydro-6′H-spiro[cyclohexane-1,9′-pyrazino[1′,2′:1,5]pyrrolo[2,3-d]pyrimidin]-6′-one], which oral bioavailability [1] is on record?
**A.** The oral bioavailability was “low”.

**Q.** And the “EdU incorporation into HSPCs compared to control” value (HSPCs)?
**A.** The value was “some reduction at 12 hours and started to return to baseline at 24 hours”.

**Q.** Which “F (oral bioavailability)” value [1] does the source give for O=C1NCC2(CCCCC2)n2c1cc1cnc(Nc3ccc(N4CCC(N5CCOCC5)CC4)cn3)nc12 [U, 2′-((5-(4-morpholinopiperidin-1-yl)pyridin-2-yl)amino)-7′,8′-dihydro-6′H-spiro[cyclohexane-1,9′-pyrazino[1′,2′:1,5]pyrrolo[2,3-d]pyrimidin]-6′-one] here?
**A.** The value was 67%.

**Q.** Which results are given for CCC(C)[C@@H]1CNC(=O)c2cc3cnc(Nc4ccc(N5CCNCC5)cn4)nc3n21 (stereo partly shown) [VVV]?
**A.** IC50 (CDK4/CycD1): 7.4 nM; IC50 (CDK2/CycE): 4380 nM
